The record followed here is US8067189B2, “Methods for determining sensitivity to vascular endothelial growth factor receptor-2 modulators by measuring the level of collagen type IV” (Bristol-Myers Squibb Company, priority 2005, dated 2011).

Experiment [1] relates to Collagen type IV. As to the kind of experiment: Collagen type IV ELISA of blood (plasma) from cancer patients, clinical study CA182-002. Format: in vivo, human. As to the method: (§1) Blood samples (plasma) for ELISA analysis were obtained from Bristol-Myers Squibb Co. sponsored clinical study CA182-002, which is a phase I dose escalation study to determine the safety, pharmacokinetic, and pharmacodynamics of the example VEGFR-2 inhibitor in patients with advanced or metastatic solid tumors. Blood samples were drawn from patients at screening, pre-dose, and post-dose at 4 hours, Day 1, Day 8, Day 26, and end of treatment. Approximately 60 ml of blood was collected for the protocol specific sampling. Detailed instructions regarding the collection, processing, labeling, handling, storage, and shipment of the specimens were provided in the CA182-002 Laboratory Manual.
An ELISA method for the detection and measurement of Collagen Type IV and VE-Cadherin on human plasma or any biological sample where the proteins must be detected and measured is described. For collagen type IV ELISA, the kit was provided by Kamiya biomedical company (cat no. KT-035) and the principle method of the assay, a solid phase one-step sandwich ELISA, was as follows. Collagen Type IV in the sample was bound simultaneously by a solid phase monoclonal antibody and a monoclonal antibody-enzyme conjugate, each directed at a different antigenic site. […] After removing unbound enzyme-labeled antibody and samples, the plate was incubated with the enzyme substrate 3,3′,5,5′-tetramethylhylbenzidine (TMB). The resultant color development was directly proportional to the amount of collagen IV in the sample. The reaction was terminated by addition of acid and absorbance was measured at 450 nm. A standard curve was prepared from collagen type IV standard dilutions and collagen type IV samples concentration determined. For VE-Cadherin ELISA, the kit provided by Bender Medsystems (cat no. BMS253) was used and the principle method of the assay was as follows. An anti-VE-cadherin coating antibody was adsorbed onto the microwells. VE-cadherin present in the sample bound to antibodies adsorbed to the microwells; a biotin conjugated anti-VE-cadherin antibody was added and bound to VE-cadherin captured by the first antibody. Following incubation, unbound biotin conjugated anti-VE-cadherin was removed during a wash step. Streptavidin-HRP was added and bound to the biotin conjugated anti-VE-cadherin. Following incubation, unbound streptavidin-HRP was removed during a wash step and substrate solution reactive with HRP was added to the wells. A colored product was formed in proportion to the amount of VE-cadherin present in the sample. The reaction was terminated by addition of acid and absorbance was measured at 450 nm. A standard curve was prepared from VE-cadherin standard dilutions and VE-cadherin samples concentration determined.
Based on the pre-clinical studies, the Collagen type IV ELISA kit was examined as a potential molecular assay to monitor response and validate its expression on specimens obtained from cancer patients who received the example VEGFR-2 inhibitor. Biological samples from twelve cancer patients treated with the example VEGFR-2 inhibitor in protocol CA182002, which is a single agent dose escalation study, three patients each at 180 mg/day, 320 mg/day, 600 mg/day and 800 mg/day, were examined. Collagen Type IV blood levels were determined by an ELISA based assay for each patient at Day 0 (before therapy) and at Day 26 (after treatment). Collagen type IV levels increased on average by 24% at Day 26 in the 180 mg/day cohort; it increased on average only by 7% at Day 26 in the 320 mg/day cohort. In the 600 mg/day cohort, it was reduced on average by 26% at Day 26. In the 800 mg/day cohort, it was reduced only marginally, when compared to the 600 mg/day cohort, by 29% at Day 26.
Collagen type IV ELISA assays were also examined to see if collagen type IV was useful as a biomarker for clinical response to the example VEGFR-2 inhibitor. […] The reduction in collagen type IV blood levels correlated with clinical evidence of anti-tumor activity. […]

Experiment [2] relates to advanced or metastatic solid tumors. As to the kind of experiment: Clinical response in phase I dose escalation study CA182-002. In kind it is in vivo, human. Particulars: 600 mg/day. The protocol: as §1
Collagen type IV ELISA assays were also examined to see if collagen type IV was useful as a biomarker for clinical response to the example VEGFR-2 inhibitor. […] The reduction in collagen type IV blood levels correlated with clinical evidence of anti-tumor activity. […] Overall, the clinical results from these two evaluable patients confirm the pre-clinical data and indicate that collagen type IV ELISA assay is a clinically useful method to monitor response to a VEGFR-2 modulator(s) such as the example VEGFR-2 inhibitor.

The subject of experiment [3] is L2987 tumor xenograft. Put plainly: In vivo antitumor testing, L2987 tumor xenograft model. Set-up: species or system mouse. Particulars: L2987, nude mice, 100 mg/kg 1 qd×26. As to the method: In this example, the Table 2 biomarkers were identified using mouse xenograft tumor models that were treated with the example VEGFR-2 inhibitor.
Tumors were propagated in nude mice as subcutaneous (sc) transplants using tumor fragments obtained from donor mice. Tumor passage occurred approximately every two to four weeks. Tumors were then allowed to grow to the pre-determined size window (usually between 100-200 mg, tumors outside the range were excluded) and animals were evenly distributed to various treatment and control groups. Animals were treated with the example VEGFR-2 inhibitor (100 mg/kg 1 qd×26). Treated animals were checked daily for treatment related toxicity/mortality. […] Tumor response was determined by measurement of tumors with a caliper twice a week, until the tumors reached a predetermined target size of 1 gm or became necrotic. […]
Antitumor activity was determined in terms of primary tumor growth inhibition. This was determined in two ways: (i) calculating the relative median tumor weight (MTW) of treated (T) and control (C) mice at various time points (effects were expressed as % T/C); and (ii) calculating the tumor growth delay (T−C value), defined as the difference in time (days) required for the treated tumors (T) to reach a predetermined target size compared to those of the control group (C). […]

Take `Cc1cc2c(F)c(Oc3ncnn4cc(OC[C@@H](C)OC(=O)[C@H](C)N)c(C)c34)ccc2[nH]1` [example VEGFR-2 inhibitor, [(1R),2S]-2-Aminopropionic acid 2-[4-(4-fluoro-2-methyl-1H-indol-5-yloxy)-5-methylpyrrolo[2,1-f][1,2,4]triazin-6-yloxy]-1-methylethyl ester]: the “Collagen type IV levels increased on average by” value in experiment [1] (180 mg/day cohort, three patients, Day 26 vs Day 0) was 24%; in experiment [1] (320 mg/day cohort, three patients, Day 26 vs Day 0), 7%. In addition, the “Collagen type IV levels reduced on average by” value in experiment [1] (600 mg/day cohort, three patients, Day 26 vs Day 0) is 26%. The “Collagen type IV levels reduced by” value in experiment [1] (800 mg/day cohort, three patients, Day 26 vs Day 0) was 29%. For the same compound, the “reduction in collagen type IV levels” value in experiment [1] (another patient, 600 mg/day, between Day 0 and Day 26, P=0.632) is given as “no significant reduction”. Also, the “collagen type IV blood levels reduced” value in experiment [1] (one patient with ampulla of vater carcinoma, 600 mg/day, between Day 0 and Day 26, P=0.006) is over 50%. Further, the clinical response result in experiment [2] (another patient) is recorded as “did not achieve a clinical response”; in experiment [2] (one patient with ampulla of vater carcinoma), “partial response”. The “time patient was on therapy” value in experiment [2] (another patient, no clinical response) turned out to be 32 days. In experiment [2] (one patient with ampulla of vater carcinoma, partial response), the “time patient remained on therapy” value is given as 126 days. Further, the “efficacy in mouse xenograft tumor model” value in experiment [3] is “highly responsive”.
